In patent US20260183295A1, “METHODS AND COMPOSITIONS FOR TREATING CANCER” (Onconova Therapeutics, Inc., priority 2022, published 2026):

What was measured:
Experiment in all cases: CETSA-MS, MDA-MB-231 intact cells
Type in all cases: cell-based
Details in all cases: 2 μM and 20 μM
AAK1 = target: T1, AAK1 (Homo sapiens, UniProt Q2M2I8)
T1 construct: endogenous in cells; host or cells: MDA-MB-231
Protocol: (§1) TNBC MDA-MB-231 cells were grown at 37° C. in 5% CO2 and suspended in warm media and split into 4 equal volumes. […] Cells were incubated and then pelleted. Following pelleting, the cells were washed, resuspended, and heated in a thermal gradient. Following heating, the samples were flash frozen and lysed in lysis buffer, agitated by vortex, and sonicated prior to centrifugation. The supernatant was collected and denaturation buffer added. Cold acetone was then added to the cell samples, and protein collected by centrifugation. Pellets were then washed twice with cold acetone and the washed pellets prior to labeling.
(§2) The intact cell protein samples and lysate protein samples were then digested and labeled for mass spectrometry analysis according to the manufacturer's recommended protocols. Digested and labeled protein samples were analyzed by mass spectrometry proteomic analysis and the resulting protein targets were analyzed and plotted.

AHCTF1 = target: T2, AHCTF1 (Homo sapiens, UniProt Q8WYP5)
T2 construct: endogenous in cells; host or cells: MDA-MB-231
Protocol: as §1, §2

AP2A1 = target: T3, AP2A1 (Homo sapiens, UniProt O95782)
T3 construct: endogenous in cells; host or cells: MDA-MB-231
Protocol: as §1, §2

AP2S1 = target: T4, AP2S1 (Homo sapiens, UniProt P53680)
T4 construct: endogenous in cells; host or cells: MDA-MB-231
Protocol: as §1, §2

ARRB2 = target: T5, ARRB2 (Homo sapiens, UniProt P32121)
T5 construct: endogenous in cells; host or cells: MDA-MB-231
Protocol: as §1, §2

CDK17 = target: T6, CDK17 (Homo sapiens, UniProt Q00537)
T6 construct: endogenous in cells; host or cells: MDA-MB-231
Protocol: as §1, §2

CELF1 = target: T7, CELF1 (Homo sapiens, UniProt Q92879)
T7 construct: endogenous in cells; host or cells: MDA-MB-231
Protocol: as §1, §2

CPD = target: T8, CPD (Homo sapiens, UniProt O75976)
T8 construct: 148 targets unique to Compound 1 in MDA-MB-231 intact cells; endogenous in cells; host or cells: MDA-MB-231
Protocol: as §1, §2

CRAT = target: T9, CRAT (Homo sapiens, UniProt P43155)
T9 construct: 148 targets unique to Compound 1 in MDA-MB-231 intact cells; endogenous in cells; host or cells: MDA-MB-231
Protocol: as §1, §2

CST3 = target: T10, CST3 (Homo sapiens, UniProt P01034)
T10 construct: 148 targets unique to Compound 1 in MDA-MB-231 intact cells; endogenous in cells; host or cells: MDA-MB-231
Protocol: as §1, §2

DDX21 = target: T11, DDX21 (Homo sapiens, UniProt Q9NR30)
T11 construct: 148 targets unique to Compound 1 in MDA-MB-231 intact cells; endogenous in cells; host or cells: MDA-MB-231
Protocol: as §1, §2

DECR1 = target: T12, DECR1 (Homo sapiens, UniProt Q16698)
T12 construct: endogenous in cells; host or cells: MDA-MB-231
Protocol: as §1, §2

DHX9 = target: T13, DHX9 (Homo sapiens, UniProt Q08211)
T13 construct: 148 targets unique to Compound 1 in MDA-MB-231 intact cells; endogenous in cells; host or cells: MDA-MB-231
Protocol: as §1, §2

FOSB = target: T14, FOSB (Homo sapiens, UniProt P53539)
T14 construct: endogenous in cells; host or cells: MDA-MB-231
Protocol: as §1, §2

HNRNPA1 = target: T15, HNRNPA1 (Homo sapiens, UniProt P09651)
T15 construct: 148 targets unique to Compound 1 in MDA-MB-231 intact cells; endogenous in cells; host or cells: MDA-MB-231
Protocol: as §1, §2

HNRNPA2B1 = target: T16, HNRNPA2B1 (Homo sapiens, UniProt P22626)
T16 construct: 148 targets unique to Compound 1 in MDA-MB-231 intact cells; endogenous in cells; host or cells: MDA-MB-231
Protocol: as §1, §2

HNRNPC = target: T17, HNRNPC (Homo sapiens, UniProt P07910)
T17 construct: 148 targets unique to Compound 1 in MDA-MB-231 intact cells; endogenous in cells; host or cells: MDA-MB-231
Protocol: as §1, §2

HNRNPU = tested on: HNRNPU
Protocol: as §1, §2

JMY = target: T18, JMY (Homo sapiens, UniProt Q8N9B5)
T18 construct: endogenous in cells; host or cells: MDA-MB-231
Protocol: as §1, §2

LOXL2 = target: T19, LOXL2 (Homo sapiens, UniProt Q9Y4K0)
T19 construct: endogenous in cells; host or cells: MDA-MB-231
Protocol: as §1, §2

LYN = target: T20, LYN (Homo sapiens, UniProt P07948)
T20 construct: endogenous in cells; host or cells: MDA-MB-231
Protocol: as §1, §2

MLEC = target: T21, MLEC (Homo sapiens, UniProt Q14165)
T21 construct: endogenous in cells; host or cells: MDA-MB-231
Protocol: as §1, §2

MTG1 = target: T22, MTG1 (Homo sapiens, UniProt Q9BT17)
T22 construct: endogenous in cells; host or cells: MDA-MB-231
Protocol: as §1, §2

NPM1 = target: T23, NPM1 (Homo sapiens, UniProt P06748)
T23 construct: endogenous in cells; host or cells: MDA-MB-231
Protocol: as §1, §2

NRP1 = target: T24, NRP1 (Homo sapiens, UniProt O14786)
T24 construct: endogenous in cells; host or cells: MDA-MB-231
Protocol: as §1, §2

PHF8 = target: T25, PHF8 (Homo sapiens, UniProt Q9UPP1)
T25 construct: endogenous in cells; host or cells: MDA-MB-231
Protocol: as §1, §2

PIK3R4 = target: T26, PIK3R4 (Homo sapiens, UniProt Q99570)
T26 construct: endogenous in cells; host or cells: MDA-MB-231
Protocol: as §1, §2

RPS6KA3 = target: T27, RPS6KA3 (Homo sapiens, UniProt P51812)
T27 construct: endogenous in cells; host or cells: MDA-MB-231
Protocol: as §1, §2

SGPP1 = target: T28, SGPP1 (Homo sapiens, UniProt Q9BX95)
T28 construct: endogenous in cells; host or cells: MDA-MB-231
Protocol: as §1, §2

SYNE2 = target: T29, SYNE2 (Homo sapiens, UniProt Q8WXH0)
T29 construct: endogenous in cells; host or cells: MDA-MB-231
Protocol: as §1, §2

TAF15 = target: T30, TAF15 (Homo sapiens, UniProt Q92804)
T30 construct: endogenous in cells; host or cells: MDA-MB-231
Protocol: as §1, §2

TIMP2 = target: T31, TIMP2 (Homo sapiens, UniProt P16035)
T31 construct: endogenous in cells; host or cells: MDA-MB-231
Protocol: as §1, §2

TTK = target: T32, TTK (Homo sapiens, UniProt P33981)
T32 construct: endogenous in cells; host or cells: MDA-MB-231
Protocol: as §1, §2

UFL1 = target: T33, UFL1 (Homo sapiens, UniProt O94874)
T33 construct: endogenous in cells; host or cells: MDA-MB-231
Protocol: as §1, §2

YES1 = target: T34, YES1 (Homo sapiens, UniProt P07947)
T34 construct: endogenous in cells; host or cells: MDA-MB-231
Protocol: as §1, §2

ZFR = target: T35, ZFR (Homo sapiens, UniProt Q96KR1)
T35 construct: endogenous in cells; host or cells: MDA-MB-231
Protocol: as §1, §2

T16 sequence (P22626 whole entry): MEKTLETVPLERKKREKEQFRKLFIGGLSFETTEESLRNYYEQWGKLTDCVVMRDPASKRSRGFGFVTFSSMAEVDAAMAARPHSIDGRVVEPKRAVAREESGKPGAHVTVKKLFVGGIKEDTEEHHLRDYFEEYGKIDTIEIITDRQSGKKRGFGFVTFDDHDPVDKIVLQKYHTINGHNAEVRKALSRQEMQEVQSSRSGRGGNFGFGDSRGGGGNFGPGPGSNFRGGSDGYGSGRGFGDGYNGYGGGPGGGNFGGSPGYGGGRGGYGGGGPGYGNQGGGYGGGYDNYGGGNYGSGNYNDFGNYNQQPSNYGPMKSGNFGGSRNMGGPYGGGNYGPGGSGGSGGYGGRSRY
T35 sequence (Q96KR1 whole entry): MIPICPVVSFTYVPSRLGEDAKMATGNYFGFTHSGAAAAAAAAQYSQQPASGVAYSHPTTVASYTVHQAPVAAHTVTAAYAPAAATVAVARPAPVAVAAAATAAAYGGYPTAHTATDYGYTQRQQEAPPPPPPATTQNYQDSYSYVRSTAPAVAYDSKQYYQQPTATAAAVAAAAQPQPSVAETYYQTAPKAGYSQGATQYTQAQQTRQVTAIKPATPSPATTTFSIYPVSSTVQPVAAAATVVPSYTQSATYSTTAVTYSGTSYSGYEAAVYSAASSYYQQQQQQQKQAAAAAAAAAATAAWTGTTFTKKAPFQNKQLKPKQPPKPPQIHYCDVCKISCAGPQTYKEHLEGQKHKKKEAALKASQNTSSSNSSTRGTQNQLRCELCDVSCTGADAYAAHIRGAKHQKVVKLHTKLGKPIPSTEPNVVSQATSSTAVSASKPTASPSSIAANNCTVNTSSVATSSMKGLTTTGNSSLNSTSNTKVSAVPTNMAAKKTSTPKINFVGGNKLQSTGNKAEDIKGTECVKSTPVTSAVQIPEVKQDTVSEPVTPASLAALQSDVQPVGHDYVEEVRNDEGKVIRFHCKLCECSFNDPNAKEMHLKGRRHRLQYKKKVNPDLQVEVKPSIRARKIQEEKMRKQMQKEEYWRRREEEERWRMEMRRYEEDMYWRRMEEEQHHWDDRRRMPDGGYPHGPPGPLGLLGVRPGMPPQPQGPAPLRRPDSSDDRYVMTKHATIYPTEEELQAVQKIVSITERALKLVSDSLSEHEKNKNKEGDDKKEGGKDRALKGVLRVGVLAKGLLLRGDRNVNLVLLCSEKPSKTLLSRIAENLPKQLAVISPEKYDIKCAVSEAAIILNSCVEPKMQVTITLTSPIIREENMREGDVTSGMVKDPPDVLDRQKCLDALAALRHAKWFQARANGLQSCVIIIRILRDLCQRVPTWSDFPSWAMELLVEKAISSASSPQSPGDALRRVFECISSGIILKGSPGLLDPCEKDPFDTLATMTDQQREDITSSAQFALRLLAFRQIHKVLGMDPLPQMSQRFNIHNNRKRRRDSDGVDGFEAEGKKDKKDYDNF
T24 sequence (O14786 22-923): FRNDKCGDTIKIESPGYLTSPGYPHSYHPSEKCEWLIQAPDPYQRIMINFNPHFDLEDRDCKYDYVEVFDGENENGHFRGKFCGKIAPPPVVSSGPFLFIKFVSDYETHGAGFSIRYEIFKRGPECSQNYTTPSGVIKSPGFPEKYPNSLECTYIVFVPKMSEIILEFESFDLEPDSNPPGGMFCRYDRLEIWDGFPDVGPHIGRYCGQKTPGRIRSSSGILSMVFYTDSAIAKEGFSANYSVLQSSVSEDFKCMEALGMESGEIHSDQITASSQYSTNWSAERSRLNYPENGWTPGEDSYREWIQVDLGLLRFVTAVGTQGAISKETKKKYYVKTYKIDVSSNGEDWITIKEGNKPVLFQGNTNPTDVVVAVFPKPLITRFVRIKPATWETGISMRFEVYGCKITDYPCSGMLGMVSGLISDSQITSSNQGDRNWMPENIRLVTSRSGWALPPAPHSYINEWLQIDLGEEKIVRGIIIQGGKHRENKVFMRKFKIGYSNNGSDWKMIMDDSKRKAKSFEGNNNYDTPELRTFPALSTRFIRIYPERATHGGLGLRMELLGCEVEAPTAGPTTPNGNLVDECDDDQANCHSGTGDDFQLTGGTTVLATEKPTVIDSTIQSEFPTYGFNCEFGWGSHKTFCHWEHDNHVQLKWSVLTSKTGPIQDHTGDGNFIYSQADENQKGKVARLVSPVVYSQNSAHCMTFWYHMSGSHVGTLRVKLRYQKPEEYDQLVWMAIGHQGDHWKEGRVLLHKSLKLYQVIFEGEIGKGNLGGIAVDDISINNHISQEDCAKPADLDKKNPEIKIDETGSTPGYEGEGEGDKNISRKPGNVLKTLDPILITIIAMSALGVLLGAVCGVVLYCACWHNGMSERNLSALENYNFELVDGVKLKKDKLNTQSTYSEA
T13 sequence (Q08211 whole entry): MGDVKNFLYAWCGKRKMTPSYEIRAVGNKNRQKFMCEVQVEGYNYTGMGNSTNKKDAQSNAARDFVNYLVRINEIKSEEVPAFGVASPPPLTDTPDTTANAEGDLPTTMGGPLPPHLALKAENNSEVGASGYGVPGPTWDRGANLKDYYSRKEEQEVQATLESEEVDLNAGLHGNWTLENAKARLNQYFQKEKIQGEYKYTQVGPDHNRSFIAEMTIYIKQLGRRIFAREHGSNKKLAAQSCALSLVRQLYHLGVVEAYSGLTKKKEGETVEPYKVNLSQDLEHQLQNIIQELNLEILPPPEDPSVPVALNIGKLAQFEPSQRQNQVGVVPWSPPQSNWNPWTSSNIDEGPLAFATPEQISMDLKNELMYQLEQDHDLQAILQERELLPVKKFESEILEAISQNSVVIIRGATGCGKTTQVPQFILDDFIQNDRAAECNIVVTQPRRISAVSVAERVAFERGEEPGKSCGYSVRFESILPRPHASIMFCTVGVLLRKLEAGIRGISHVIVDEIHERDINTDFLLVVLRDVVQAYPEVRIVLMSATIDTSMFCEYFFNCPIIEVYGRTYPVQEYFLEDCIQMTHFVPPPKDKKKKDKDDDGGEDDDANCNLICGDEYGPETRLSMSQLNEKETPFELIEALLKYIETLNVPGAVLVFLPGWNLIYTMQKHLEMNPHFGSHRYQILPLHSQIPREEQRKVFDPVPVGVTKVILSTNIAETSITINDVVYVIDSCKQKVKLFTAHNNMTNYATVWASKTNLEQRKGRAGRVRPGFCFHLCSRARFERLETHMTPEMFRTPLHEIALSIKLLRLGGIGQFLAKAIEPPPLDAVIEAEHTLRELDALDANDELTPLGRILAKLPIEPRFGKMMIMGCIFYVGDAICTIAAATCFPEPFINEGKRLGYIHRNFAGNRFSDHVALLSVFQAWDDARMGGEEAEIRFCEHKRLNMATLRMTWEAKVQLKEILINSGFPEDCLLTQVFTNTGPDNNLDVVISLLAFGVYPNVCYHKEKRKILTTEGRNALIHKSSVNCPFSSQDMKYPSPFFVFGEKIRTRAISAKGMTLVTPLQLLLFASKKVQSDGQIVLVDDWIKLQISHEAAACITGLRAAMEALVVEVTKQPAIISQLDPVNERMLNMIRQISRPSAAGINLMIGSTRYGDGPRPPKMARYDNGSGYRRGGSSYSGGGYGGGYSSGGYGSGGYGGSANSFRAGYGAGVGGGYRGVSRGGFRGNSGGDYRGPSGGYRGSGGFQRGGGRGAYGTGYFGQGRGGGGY
T9 sequence (P43155 whole entry): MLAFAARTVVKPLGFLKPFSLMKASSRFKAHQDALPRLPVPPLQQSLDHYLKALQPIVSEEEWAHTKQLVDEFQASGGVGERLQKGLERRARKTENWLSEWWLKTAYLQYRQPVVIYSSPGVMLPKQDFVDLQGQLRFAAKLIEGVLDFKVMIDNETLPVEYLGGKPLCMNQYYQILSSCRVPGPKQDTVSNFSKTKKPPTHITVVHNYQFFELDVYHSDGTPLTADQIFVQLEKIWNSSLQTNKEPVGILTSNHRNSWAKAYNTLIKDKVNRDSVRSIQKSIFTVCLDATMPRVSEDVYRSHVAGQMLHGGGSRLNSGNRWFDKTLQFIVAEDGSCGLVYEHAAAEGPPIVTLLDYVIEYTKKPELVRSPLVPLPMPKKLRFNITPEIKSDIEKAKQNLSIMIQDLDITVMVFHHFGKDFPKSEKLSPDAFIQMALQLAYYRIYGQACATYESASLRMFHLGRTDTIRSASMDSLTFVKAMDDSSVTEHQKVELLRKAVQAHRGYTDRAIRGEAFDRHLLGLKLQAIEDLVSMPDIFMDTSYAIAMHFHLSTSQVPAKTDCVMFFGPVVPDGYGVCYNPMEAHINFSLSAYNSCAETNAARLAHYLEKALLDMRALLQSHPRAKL
T32 sequence (P33981 whole entry): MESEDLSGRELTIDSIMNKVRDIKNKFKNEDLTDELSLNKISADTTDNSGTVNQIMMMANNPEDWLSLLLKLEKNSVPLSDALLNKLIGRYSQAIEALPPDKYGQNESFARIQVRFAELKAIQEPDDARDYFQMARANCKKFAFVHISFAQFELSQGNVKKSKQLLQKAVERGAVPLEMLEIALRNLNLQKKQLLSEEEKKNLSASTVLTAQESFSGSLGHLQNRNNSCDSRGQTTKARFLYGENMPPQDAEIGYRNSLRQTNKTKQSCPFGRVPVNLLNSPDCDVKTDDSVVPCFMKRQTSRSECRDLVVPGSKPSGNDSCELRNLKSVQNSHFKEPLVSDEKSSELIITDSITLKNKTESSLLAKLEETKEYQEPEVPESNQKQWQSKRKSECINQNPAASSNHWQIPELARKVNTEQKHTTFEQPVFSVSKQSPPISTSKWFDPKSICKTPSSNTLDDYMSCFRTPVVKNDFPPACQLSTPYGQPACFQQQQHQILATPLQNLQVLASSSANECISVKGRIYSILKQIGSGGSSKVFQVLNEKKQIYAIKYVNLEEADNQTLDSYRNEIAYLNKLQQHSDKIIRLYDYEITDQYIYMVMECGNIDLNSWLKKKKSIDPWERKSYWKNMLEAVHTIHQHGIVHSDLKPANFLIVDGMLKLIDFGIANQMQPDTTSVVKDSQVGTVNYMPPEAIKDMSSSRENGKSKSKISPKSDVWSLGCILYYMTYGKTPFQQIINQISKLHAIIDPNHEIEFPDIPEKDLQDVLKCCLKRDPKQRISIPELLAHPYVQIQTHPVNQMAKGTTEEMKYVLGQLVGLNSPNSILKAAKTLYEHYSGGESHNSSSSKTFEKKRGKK

## CN1CCN(c2ccc(Nc3ncc4cc(C#N)c(=O)n(C5CCCC5)c4n3)cc2)CC1 [Compound 1, 8-cyclopentyl-2-((4-(4-methylpiperazin-1-yl)phenyl)amino)-7-oxo-7,8-dihydropyrido[2,3-d]pyrimidine-6-carbonitrile]
AAK1
  Group (CETSA-MS thermal shift): Stabilization
AHCTF1
  Group (CETSA-MS thermal shift): Stabilization
AP2A1
  Group (CETSA-MS thermal shift): Destabilization
AP2S1
  Group (CETSA-MS thermal shift): Destabilization
ARRB2
  Group (CETSA-MS thermal shift): Stabilization
CDK17
  Group (CETSA-MS thermal shift): Stabilization
CELF1
  Group (CETSA-MS thermal shift): Stabilization
CPD
  Group (CETSA-MS thermal shift): Stabilization
CRAT
  Group (CETSA-MS thermal shift): Stabilization
CST3
  Group (CETSA-MS thermal shift): Stabilization
DDX21
  Group (CETSA-MS thermal shift): Stabilization
DECR1
  Group (CETSA-MS thermal shift): Destabilization
DHX9
  Group (CETSA-MS thermal shift): Stabilization
FOSB
  Group (CETSA-MS thermal shift): Destabilization
HNRNPA1
  Group (CETSA-MS thermal shift): Stabilization
HNRNPA2B1
  Group (CETSA-MS thermal shift): Stabilization
HNRNPC
  Group (CETSA-MS thermal shift): Stabilization
HNRNPU
  Group (CETSA-MS thermal shift): Stabilization
JMY
  Group (CETSA-MS thermal shift): Stabilization
LOXL2
  Group (CETSA-MS thermal shift): Stabilization
LYN
  Group (CETSA-MS thermal shift): Destabilization
MLEC
  Group (CETSA-MS thermal shift): Stabilization
MTG1
  Group (CETSA-MS thermal shift): Stabilization
NPM1
  Group (CETSA-MS thermal shift): Destabilization
NRP1
  Group (CETSA-MS thermal shift): Stabilization
PHF8
  Group (CETSA-MS thermal shift): Stabilization
PIK3R4
  Group (CETSA-MS thermal shift): Stabilization
RPS6KA3
  Group (CETSA-MS thermal shift): Destabilization
SGPP1
  Group (CETSA-MS thermal shift): Stabilization
SYNE2
  Group (CETSA-MS thermal shift): Stabilization
TAF15
  Group (CETSA-MS thermal shift): Stabilization
TIMP2
  Group (CETSA-MS thermal shift): Stabilization
TTK
  Group (CETSA-MS thermal shift): Stabilization
UFL1
  Group (CETSA-MS thermal shift): Stabilization
YES1
  Group (CETSA-MS thermal shift): Destabilization
ZFR
  Group (CETSA-MS thermal shift): Stabilization
